Marks after values point to notes of the source that are not given here.
Legend:
NHSF cell line = test: In vitro cytotoxicity and cell viability, optical microscope; type: cell-based
Procedure: On the NHSF cell line, the cytotoxic effect of ABA alone and collagen nanoparticles loaded with ABA was investigated with serial double-fold dilutions at an initial dose of 50 μMABA. ABA loaded with collagen nanoparticles was dissolved in ethanol, 0.0264 g/mL stock solutions, which were then serially diluted in a complete growth medium to make the different concentrations used in cytotoxicity assays. The cytotoxicity of each drug against the NHSF cell line was determined using an optical microscope. After a 24-hour incubation period at 37° C., exponentially developing cells were seeded in 96-well flat-bottomed microplates and subjected to drug doses for […].
After exposure of the NHSF cell line to each experimental drug, the reactions were allowed to proceed in an incubator (37° C./5% CO2/95% humidity) for 24 hours and 72 hours of time. Cell viability was recorded through an optical microscope, which is one of the methods generally used to detect cell proliferation or toxicity.
After 24 hours, cell growth rates in different types of ABA and “Marine Collagen Nanoparticles (MCNPs) with ABA were observed under an optical microscope. Cells were also cultured in media containing ethanol in an incubator (37° C./5% CO2/95% humidity) and then observed under an optical microscope.

[1] = tested on: adrenaline-induced myocardial infarction (MI); test: Electrocardiogram and haemodynamic assessment in adrenaline-induced MI rats; type: in vivo; conditions: for ECG finding: MI rats, FIGS. 3A-3E; for COP (mean) / HR (mean) / RR (interval) / ST height / carotid flow mean: rats, adrenaline 2 mg/kg s.c. on 2 consecutive days, treatment for one week
Procedure: (§1) Four groups of rats were injected with adrenaline (2 mg/kg, s.c.) as a single dose for 2 consecutive days (24 h apart) to induce myocardial infarction (MI) while an additional rat group was used as control. Treatment of the rat groups is set forth below.
(§2) Group 1: (Control negative group): rats were injected intraperitoneally (i.p.) with physiological saline 0.2 ml/day for one week.
(§3) Group 2 (MI group): rats were injected with adrenaline (2 mg/kg, s.c.) as a single dose for 2 consecutive days (24 h apart) to induce MI.
(§4) Group 3 (MI+ABA carrying on collagen nanoparticle): rats were injected with adrenaline (2 mg/kg, s.c.) as a single dose for 2 consecutive days (24 h apart) to induce MI and ABA-loaded collagen nanoparticle were administered with adrenaline by oral gavage for one week 1 mg/kg/day of.
(§5) Group 4 (MI+Trimetazidine): rats were injected with adrenaline (2 mg/kg, s.c.) as a single dose for 2 consecutive days (24 h apart) to induce MI and Trimetazidine (Sigma, USA) was administered intraperitoneally with adrenaline at 10 mg/kg/day for one week. Trimetazidine was injected intraperitoneally in the low-dose group (10 mg/kg).
(§6) Group 5 (MI+Collagen nanoparticle) group: rats were injected with adrenaline (2 mg/kg, s.c.) as a single dose for 2 consecutive days (24 h apart) to induce MI Collagen nanoparticle was administered along with adrenaline by oral gavage for one week at 1 mg/kg/day.
(§7) Group 6 (MI+ABA carrying on collagen nanoparticle+Trimetazidine) group: rats were injected with adrenaline (2 mg/kg, s.c.) as a single dose for 2 consecutive days (24 h apart) to induce MI, and ABA-loaded collagen nanoparticle were administered (1 mg/kg/day) by oral gavage and 10 mg/kg/day with Trimetazidine administered intraperitoneally (i.p.) along with adrenaline for one week.

[2] = tested on: cardiac enzymes; troponin, LDH, and CK; test: Biological cardiac markers in serum, MI rats; type: in vivo; conditions: for Cardiac enzyme levels: serum troponin, LDH, CK
Procedure: as §1, §2, §3, §4, §5, §6, §7

[3] = Body and heart weight of experimental rats; type: in vivo; conditions: MI rats, treatment for one week
Procedure: as §1, §2, §3, §4, §5
Group 5 (MI+Collagen nanoparticle) group: rats were injected with adrenaline (2 mg/kg, s.c.) as a single dose for 2 consecutive days (24 h apart) to induce MI Collagen nanoparticle was administered along with adrenaline by oral gavage for one week at 1 mg/kg/day. […]

[4] = tested on: oxidative stress markers and antioxidant enzymes; test: Oxidative stress markers and antioxidant enzymes, cardiac contents, MI rats; type: in vivo; conditions: treatment for one week
Procedure: as §1, §2, §3, §4, §5, §6, §7
All treatment drugs improved the marker levels. NO level increased due to adrenaline administration because the role of NO in cardiovascular diseases is complex and controversial.

In the case of `CC1=CC(=O)CC(C)(C)[C@@]1(O)/C=C/C(C)=C\C(=O)O` [ABA, abscisic acid], the cell proliferation (NHSF cell line; HSFs culture, after 72 hours) was “marked increase of proliferation” and the cell morphology (NHSF cell line; NHSF cell line, after 24 hours) was “normal morphology of branch- and spindle-shapes”.

For `CC1=CC(=O)CC(C)(C)C1(O)/C=C/C(C)=C\C(=O)O` (centres unmarked) [Extracted ABA, abscisic acid], the ECG finding [1] was “still showed pathological changes but with the ST segment nearer to the isoelectric line”, the “elevation of COP” value ([1]; compared to the MI group) was 73% and the “elevation of SV” value ([1]; compared to the MI group) was 93%. For the same molecule, the “elevation of carotid blood flow” value ([1]; compared to the MI group) was 70%, the “COP (mean)” value [1] was 18.57 ± 1.0^b ml/min and the “HR (mean)” value [1] was 247.4 ± 9.69^cd b/min. For the same molecule, the “RR (interval)” value [1] was 0.73 ± 0.03^b sec, the ST height [1] was 42.98 ± 4.05^b mm and the carotid flow mean [1] was 18.06 ± 1.15^b ml/min. For the same molecule, the Cardiac enzyme levels [2] was “decreased toward normal”.

With `CC1=CC(=O)CC(C)(C)[C@@]1(O)/C=C/C(C)=C\C(=O)O` [Standard ABA, abscisic acid] the ECG finding [1] was “still showed pathological changes but with the ST segment nearer to the isoelectric line”, the “elevation of COP” value ([1]; compared to the MI group) was 63% and the “elevation of SV” value ([1]; compared to the MI group) was 73%. For the same molecule, the “elevation of carotid blood flow” value ([1]; compared to the MI group) was 63%, the “COP (mean)” value [1] was 17.52 ± 0.1^b ml/min and the “HR (mean)” value [1] was 255.77 ± 1.23^c b/min. For the same molecule, the “RR (interval)” value [1] was 0.7 ± 0.003^c sec, the ST height [1] was 39.33 ± 2.15^b mm and the carotid flow mean [1] was 17.4 ± 0.16^b ml/min. The Cardiac enzyme levels [2] was “decreased toward normal”.

For `COc1ccc(CN2CCNCC2)c(OC)c1OC` [Trimetazidine], the ECG finding [1] was “almost normal electrocardiogramith little to no elevation in the ST-segment”, the “decrease in the ST segment elevation” value ([1]; compared to the MI group) was ~46% and the “COP (mean)” value [1] was 23.9 ± 0.07^a ml/min. For the same molecule, the “HR (mean)” value [1] was 254.17 ± 1.89^c b/min, the “RR (interval)” value [1] was 0.75 ± 0.02^a sec and the ST height [1] was 27.55 ± 0.49^c mm. The carotid flow mean [1] was 23.75 ± 0.05^a ml/min, the Bwt ([3]; body weight) was 188 ± 1.22^bcd and the Hwt ([3]; heart weight) was 1.39 ± 0.03^cd. The Catalase ([4]; cardiac contents) was 132.5 ± 36.08^ab U/g protein, the GSH ([4]; cardiac contents) was 19.59 ± 2.28ª μmol/g protein and the MDA ([4]; cardiac contents) was 4.4 ± 0.26^cde μmol/g protein. For the same molecule, the NO [4] was 52.22 ± 0^bc μM/g protein, the CK-MB ([2]; serum, treatment for one week) was 1.13 ± 0.02^bc U/L and the LDH ([2]; serum, treatment for one week) was 246.67 ± 12.47^d U/L. For the same molecule, the Troponin ([2]; serum, treatment for one week) was 1.34 ± 0.03^d ng/ml.

Reference: patent publication US12128019B1, “Nanocomposite including abscisic acid-loaded collagen nanoparticles” (KING FAISAL UNIVERSITY, priority 2023, dated 2024)
